Columns and labels:
[1] = tested on: eIF2α in HEK293-EGFP-eIF2α cells; experiment: PERK Cellular Assay (HEK293-EGFP-eIF2α cells, tunicamycin-induced ER stress, TR-FRET); assay type: cell-based; conditions: tunicamycin 2 hours
Protocol: Stable cell lines were created in HEK293 cells using lentiviral particles harboring an expression vector for GFP-eIF2α. Cells were selected using puromycin and enriched using fluorescence activated cell sorting against GFP. HEK293-EGFP-eIF2α cells were plated at 5000 cells/well in 384-well assay plates and incubated overnight at 37° C., 5% CO2. Inhibitor compounds were added to the wells by Echo acoustic dispensing and incubated for 30 minutes at 37° C., 5% CO2 prior to induction of ER stress by addition of tunicamycin to […] for 2 hours. Cells were lysed and TR-FRET was measured in an EnVision plate reader (PerkinElmer). FRET ratio data was normalized to signal from lysates treated with DMSO vehicle control and plotted as percent inhibition against 10-point; 3-fold dilution series of inhibitors. IC50 values were calculated using 4-parameter logistical fitting in XLFit.

[2] = biological target: Recombinant human EIF2AK3 (PERK) catalytic domain (amino acids 536-1116) (Homo sapiens (Human), UniProt Q9NZJ5); experiment: PERK In Vitro Activity Assay (isolated), TR-FRET kinase assay; conditions: isolated PERK enzyme, 1.5 μM ATP, read-out: Biochemical IC50
From the text: PERK In Vitro Activity Assay (isolated):
In vitro Inhibition of PERK Enzyme Activity (isolated) Recombinant human EIF2AK2 (PKR) catalytic domain (amino acids 252-551), EIF2AK3 (PERK) catalytic domain (amino acids 536-1116), GFP-eIF2a substrate, and Terbium-labelled phospho-eIF2a antibody is obtained (Invitrogen, Carlsbad, CA).
Express and purify HIS-SUMO-GCN2 catalytic domain (amino acids 584-1019) from E. coli. Perform TR-FRET kinase assays in the absence or presence of inhibitors in a reaction buffer consisting of 50 mM HEPES, pH 7.5, 10 mM MgCb, 1.0 mM EGTA, and 0.01% Brij-35, and 100-200 nM GFP-eIF2a substrate. […] Add test compound, initiate the reaction by addition of enzyme, and incubate at room temperature for 45 minutes. Stop the reaction by addition of EDTA to a final concentration of 10 mM, add Terbium-labelled phospho-eIF2a antibody at a final concentration of 2 nM, and incubate for 90 minutes. Monitor the resulting fluorescence in an EnVison® Multilabel reader (PerkinElmer, Waltham, MA). Determine TR-FRET ratios and the resulting IC50 values using a 4-parameter nonlinear logistic equation as shown: Y=(A+((B−A)/(1+(C/x)AD)))) where, Y=% specific inhibition, A=Bottom of the curve, B=Top of the curve, C=absolute IC50 (concentration causing 50% inhibition), and D=hill slope.

Sequence of Recombinant human EIF2AK3 (PERK) catalytic domain (amino acids 536-1116) (Q9NZJ5 536-1116): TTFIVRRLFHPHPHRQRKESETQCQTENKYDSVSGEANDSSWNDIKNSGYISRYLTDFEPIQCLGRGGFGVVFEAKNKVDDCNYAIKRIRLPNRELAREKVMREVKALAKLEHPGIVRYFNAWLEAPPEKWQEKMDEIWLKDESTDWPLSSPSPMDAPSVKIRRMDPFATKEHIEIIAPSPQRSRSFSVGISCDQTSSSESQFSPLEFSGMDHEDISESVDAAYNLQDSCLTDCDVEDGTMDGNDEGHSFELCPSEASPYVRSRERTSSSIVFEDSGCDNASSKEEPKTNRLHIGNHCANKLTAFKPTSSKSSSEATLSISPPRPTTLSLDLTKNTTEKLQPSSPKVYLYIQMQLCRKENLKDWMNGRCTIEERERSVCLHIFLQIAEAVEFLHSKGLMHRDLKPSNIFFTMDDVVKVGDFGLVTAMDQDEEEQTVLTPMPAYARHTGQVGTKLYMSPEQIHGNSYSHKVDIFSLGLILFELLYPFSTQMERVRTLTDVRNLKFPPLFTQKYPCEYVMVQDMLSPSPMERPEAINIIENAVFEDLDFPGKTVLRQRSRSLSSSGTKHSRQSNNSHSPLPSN

SMILES | IC50 [1] | IC50 [2]
Cc1cnc(N)c2c(-c3ccc(NC(=O)C(O)c4cccc(F)c4)cc3F)nc(C)n12 (stereo not shown) [Example 70, N-(4-(8-amino-3,5-dimethylimidazo [1,5-a]pyrazin-1-yl)-3-fluorophenyl)-2-(3-fluorophenyl)-2-hydroxy-acetamide] | 1 to 25 nM | 1 to 25 nM
[2H]C([2H])([2H])c1nc(-c2ccc(NC(=O)C(O)c3cccc(Cl)c3)cc2C)c2c(N)nc(C)cn12 (stereo not shown) [Example 35, N-[4-[8-amino-6-methyl-3-(trideuteriomethyl)imidazo[1,5-a]pyrazin-1-yl]-3-methyl-phenyl]-2-(3-chlorophenyl)-2-hydroxy-acetamide] | 1000 to 2000 nM | 101 to 250 nM
[2H]C([2H])([2H])c1nc(-c2ccc(NC(=O)C(O)c3cccc(F)c3)nc2C)c2c(N)nc(C)cn12 (stereo not shown) [Example 171, N-[5-[8-amino-6-methyl-3-(trideuteriomethyl)imidazo[1,5-a]pyrazin-1-yl]-6-methyl-2-pyridyl]-2-(3-fluorophenyl)-2-hydroxy-acetamide] | > 5000 nM | 1000 to 2000 nM
[2H]C([2H])([2H])c1nc(-c2ccc(NC(=O)C(O)c3cc(F)cc(F)c3)c(F)c2F)c2c(N)ncc(Cl)n12 (stereo not shown) [Example 157, N-[4-[8-amino-5-chloro-3-(trideuteriomethyl)imidazo[1,5-a]pyrazin-1-yl]-2,3-difluoro-phenyl]-2-(3,5-difluorophenyl)-2-hydroxy-acetamide] | 51 to 100 nM | 1 to 25 nM
Cc1cnc(N)c2c(-c3ccc(NC(=O)C(O)c4cccc(F)c4)cc3F)nc(C)n12 (stereo not shown) [Example 71, N-(4-(8-amino-3,5-dimethylimidazo [1,5-a]pyrazin-1-yl)-3-fluorophenyl)-2-(3-fluorophenyl)-2-hydroxy-acetamide] | 51 to 100 nM | 1 to 25 nM
[2H]C([2H])([2H])c1nc(-c2ccc(NC(=O)C(O)c3cccc(C(F)(F)F)c3)nc2C)c2c(N)nc(C)cn12 (stereo not shown) [Example 177, N-[5-[8-amino-6-methyl-3-(trideuteriomethyl)imidazo[1,5-a]pyrazin-1-yl]-6-methyl-2-pyridyl]-2-hydroxy-2-[3-(trifluoromethyl)phenyl]acetamide] | 501 to 1000 nM | 101 to 250 nM
Cc1cnc(N)c2c(-c3ccc(NC(=O)C(O)c4cccc(F)c4)cc3OC(F)(F)F)nc(C)n12 (stereo not shown) [Example 126, N-(4-(8-amino-3,5-dimethyl-imidazo[1,5-a]pyrazin-1-yl)-3-(trifluoromethoxy)phenyl)-2-(3-fluorophenyl)-2-hydroxyacetamide] | 501 to 1000 nM | 101 to 250 nM
Cc1cnc(N)c2c(-c3ccc(NC(=O)C(O)c4cccc(F)c4)c(F)c3)nc(C)n12 (stereo not shown) [Example 125, N-(4-(8-amino-3,5-dimethyl-imidazo[1,5-a]pyrazin-1-yl)-2-fluorophenyl)-2-(3-fluorophenyl)-2-hydroxy-acetamide] | 1 to 25 nM | 1 to 25 nM
[2H]C([2H])([2H])c1nc(-c2ccc(NC(=O)C(O)c3cc(F)cc(C(F)(F)F)c3)cc2F)c2c(N)ncc(C(F)(F)F)n12 (stereo not shown) [Example 112, N-[4-[8-amino-3-(trideuteriomethyl)-5-(trifluoromethyl)imidazo[1,5-a]pyrazin-1-yl]-3-fluoro-phenyl]-2-[3-fluoro-5-(trifluoromethyl)phenyl]-2-hydroxy-acetamide] | 1 to 25 nM | 1 to 25 nM
[2H]C([2H])([2H])c1nc(-c2ccc(NC(=O)C(O)c3cc(F)cc(F)c3)cc2C)c2c(N)nc(C)cn12 (stereo not shown) [Example 44, N-[4-[8-amino-6-methyl-3-(trideuteriomethyl)imidazo[1,5-a]pyrazin-1-yl]-3-methyl-phenyl]-2-(3,5-difluoro-phenyl)-2-hydroxy-acetamide] | 101 to 250 nM | 1 to 25 nM
[2H]C([2H])([2H])c1nc(-c2ccc(NC(=O)C(O)c3cccc(F)c3)cc2C)c2c(N)ncc(C)n12 (stereo not shown) [Example 11, N-(4-(8-amino-5-methyl-3-(trideuteriomethyl)imidazo[1,5-a]pyrazin-1-yl)-3-methylphenyl)-2-(3-fluorophenyl)-2-hydroxyacetamide] | 1 to 25 nM | –
[2H]C([2H])([2H])c1nc(-c2ccc(NC(=O)C(O)c3cc(F)cc(F)c3)cc2C)c2c(N)ncc(Cl)n12 (stereo not shown) [Example 49, N-[4-[8-amino-5-chloro-3-(trideuteriomethyl)imidazo[1,5-a]pyrazin-1-yl]-3-methyl-phenyl]-2-(3,5-difluoro-phenyl)-2-hydroxy-acetamide] | 1 to 25 nM | –
[2H]C([2H])([2H])c1nc(-c2ccc(NC(=O)C(O)c3cc(F)cc(F)c3)cc2F)c2c(N)ncc(Cl)n12 (stereo not shown) [Example 109, N-[4-[8-amino-5-chloro-3-(trideuteriomethyl)imidazo[1,5-a]pyrazin-1-yl]-3-fluoro-phenyl]-2-(3,5-difluoro-phenyl)-2-hydroxy-acetamide] | 1 to 25 nM | –
Cc1cn2c(C3CC(C)(O)C3)nc(-c3ccc(NC(=O)C(O)c4cccc(F)c4)cc3C)c2c(N)n1 (stereo not shown) [Example 25, N-(4-(8-amino-3-(3-hydroxy-3-methylcyclobutyl)-6-methylimidazo [1,5-a]pyrazin-1-yl)-3-methyl-phenyl)-2-(3-fluorophenyl)-2-hydroxyacetamide] | 1000 to 2000 nM | –
[2H]C([2H])([2H])c1nc(-c2ccc(NC(=O)C(O)c3cccc(Cl)c3)cc2C)c2c(N)ncc(C(F)(F)F)n12 (stereo not shown) [Example 40, N-[4-[8-amino-3-(trideuteriomethyl)-5-(trifluoromethyl)imidazo[1,5-a]pyrazin-1-yl]-3-methyl-phenyl]-2-(3-chlorophenyl)-2-hydroxy-acetamide] | – | 1 to 25 nM
[2H]C([2H])([2H])c1nc(-c2ccc(NC(=O)C(O)c3cccc(F)c3)c(F)c2)c2c(N)nc(C)cn12 (stereo not shown) [Example 120, N-[4-[8-amino-6-methyl-3-(trideuteriomethyl)imidazo[1,5-a]pyrazin-1-yl]-2-fluorophenyl]-2-(3-fluorophenyl)-2-hydroxy-acetamide] | 1000 to 2000 nM | –
Cc1cn2c(C)nc(-c3ccc(NC(=O)C(O)c4cccc(F)c4)c(F)c3)c2c(N)n1 (stereo not shown) [Example 119, N-(4-(8-amino-3,6-dimethyl-imidazo[1,5-a]pyrazin-1-yl)-2-fluorophenyl)-2-(3-fluorophenyl)-2-hydroxy-acetamide] | 26 to 50 nM | –
Cc1cn2c(C)nc(-c3ccc(NC(=O)C(O)c4cccc(F)c4)c(F)c3)c2c(N)n1 (stereo not shown) [Example 118, N-(4-(8-amino-3,6-dimethyl-imidazo[1,5-a]pyrazin-1-yl)-2-fluorophenyl)-2-(3-fluorophenyl)-2-hydroxy-acetamide] | 4000 to 5000 nM | –
[2H]C([2H])([2H])c1nc(-c2ccc(NC(=O)C(O)c3cccc(C(F)(F)F)c3)cc2F)c2c(N)nc(C)cn12 (stereo not shown) [Example 97, N-[4-[8-amino-6-methyl-3-(trideuteriomethyl)imidazo[1,5-a]pyrazin-1-yl]-3-fluoro-phenyl]-2-hydroxy-2-[3-(trifluoromethyl)phenyl]acetamide] | 251 to 500 nM | –
[2H]C([2H])([2H])c1nc(-c2ccc(NC(=O)C(O)c3cccc(F)c3)nc2C)c2c(N)ncc(C)n12 (stereo not shown) [Example 172, N-[5-[8-amino-5-methyl-3-(trideuteriomethyl)imidazo[1,5-a]pyrazin-1-yl]-6-methyl-2-pyridyl]-2-(3-fluorophenyl)-2-hydroxy-acetamide] | 501 to 1000 nM | –
[2H]C([2H])([2H])c1nc(-c2ccc(NC(=O)C(O)c3cccc(C(F)(F)F)c3)cc2F)c2c(N)ncc(Cl)n12 (stereo not shown) [Example 101, N-[4-[8-amino-5-chloro-3-(trideuteriomethyl)imidazo[1,5-a]pyrazin-1-yl]-3-fluoro-phenyl]-2-hydroxy-2-[3-(trifluoromethyl)phenyl]acetamide] | 1 to 25 nM | –
[2H]C([2H])([2H])c1nc(-c2ccc(NC(=O)C(O)c3cccc(Cl)c3)cc2F)c2c(N)ncc(Cl)n12 (stereo not shown) [Example 86, N-[4-[8-amino-5-chloro-3-(trideuteriomethyl)imidazo[1,5-a]pyrazin-1-yl]-3-fluoro-phenyl]-2-(3-chlorophenyl)-2-hydroxy-acetamide] | – | 1 to 25 nM
Cc1cn2c(C3CC(C)(O)C3)nc(-c3ccc(NC(=O)C(O)c4cccc(F)c4)cc3C)c2c(N)n1 (stereo not shown) [Example 24, N-(4-(8-amino-3-(3-hydroxy-3-methylcyclobutyl)-6-methylimidazo [1,5-a]pyrazin-1-yl)-3-methyl-phenyl)-2-(3-fluorophenyl)-2-hydroxyacetamide] | 101 to 250 nM | –
[2H]C([2H])([2H])c1nc(-c2ccc(NC(=O)C(O)c3cccc(F)c3)c(F)c2)c2c(N)nc(C)cn12 (stereo not shown) [Example 121, N-[4-[8-amino-6-methyl-3-(trideuteriomethyl)imidazo[1,5-a]pyrazin-1-yl]-2-fluorophenyl]-2-(3-fluorophenyl)-2-hydroxy-acetamide] | 51 to 100 nM | –

— patent US12331054B2, “Perk inhibiting imidazolopyrazine compounds” (HiberCell, Inc., priority 2019, dated 2025)
